Measured values as given in patent US20090030015A1, “NOVEL MULTI-CYCLIC COMPOUNDS” (REVOTAR BIOPHARMACEUTICALS AG, priority 2005, published 2009).

How the values were obtained:
[1] = tested on: human E-selectin-IgG chimera; assay: Flow chamber assay, cell adhesion and rolling under flow conditions, E-selectin; assay type: cell-based; settings: normalized ratio of %-inhibition of compound divided by %-inhibition of bimosiamose; 125 μM compound; HL-60 cells; flow shear 1 dyne/cm^2
Experimental: (§1) Flow Chamber Assay/Cell Adhesion and Rolling Under Flow Conditions
(§2) To assess the capability of compounds to inhibit cell binding under dynamic conditions resembling the flow in a blood vessel, flow chamber assays addressing/testing binding of HL-60 cells/various cell lines to P-selectin, L-selectin and E-selectin chimeric molecules are performed.
(§3) Cell attachment under flow conditions is determined using a parallel flow chamber system. A 35 mm polystyrene culture dish is coated for 1 hour at room temperature with coating buffer (50 mM tris-(hydroxymethyl)aminomethane buffer (Tris), 150 mM NaCl, 2 mM CaCl2; pH 7.4) containing human E- or P-selectin-IgG chimera at concentrations of 2.5 μg/ml or 10 μg/ml, respectively. After removal of the coating solution non specific binding sites are blocked for an additional hour with 1% BSA in coating buffer at room temperature. After washing with assay buffer (“Roswell Park Memorial Institute 1640” (RPMI 1640)+10 mM HEPES) the dish is fitted into a parallel plate laminar flow chamber (sold from Glycotech, Rockville, Md.) and mounted on an inverted phase-contrast microscope (sold from Olympus, Hamburg, Germany) equipped with a CCD camera (JVC) that is connected to a PC. Employing a peristaltic pump (sold from Ismatec, Wertheim-Mondfeld, Germany) the re-circulating system is equilibrated with assay buffer containing 125 μM compound or vehicle control (DMSO). Cells (1 million/ml) are added to the chamber and allowed to distribute for 2 minutes at a high flow rate. The flow rate is then decreased resulting in a calculated flow shear of 1 dyne/cm^2. Video sequences of 10 low power fields are digitally recorded after 5 minutes continuous flow. The percentage of inhibition is calculated from the mean number of cells per field that attached to the coated dish surface in the presence versus absence of compound […].

[2] = target: T1, human P-Selectin-IgG-chimera (Homo sapiens, UniProt P16109); assay: Sialyl Lewis X Tyrosine Sulfate Assay (sLex TSA), P-selectin; assay type: binding; settings: sLexTSA; for P-Selectin [% inhib.]: in vitro inhibition at 100 μM
T1 sequence (P16109 42-771 limits assumed): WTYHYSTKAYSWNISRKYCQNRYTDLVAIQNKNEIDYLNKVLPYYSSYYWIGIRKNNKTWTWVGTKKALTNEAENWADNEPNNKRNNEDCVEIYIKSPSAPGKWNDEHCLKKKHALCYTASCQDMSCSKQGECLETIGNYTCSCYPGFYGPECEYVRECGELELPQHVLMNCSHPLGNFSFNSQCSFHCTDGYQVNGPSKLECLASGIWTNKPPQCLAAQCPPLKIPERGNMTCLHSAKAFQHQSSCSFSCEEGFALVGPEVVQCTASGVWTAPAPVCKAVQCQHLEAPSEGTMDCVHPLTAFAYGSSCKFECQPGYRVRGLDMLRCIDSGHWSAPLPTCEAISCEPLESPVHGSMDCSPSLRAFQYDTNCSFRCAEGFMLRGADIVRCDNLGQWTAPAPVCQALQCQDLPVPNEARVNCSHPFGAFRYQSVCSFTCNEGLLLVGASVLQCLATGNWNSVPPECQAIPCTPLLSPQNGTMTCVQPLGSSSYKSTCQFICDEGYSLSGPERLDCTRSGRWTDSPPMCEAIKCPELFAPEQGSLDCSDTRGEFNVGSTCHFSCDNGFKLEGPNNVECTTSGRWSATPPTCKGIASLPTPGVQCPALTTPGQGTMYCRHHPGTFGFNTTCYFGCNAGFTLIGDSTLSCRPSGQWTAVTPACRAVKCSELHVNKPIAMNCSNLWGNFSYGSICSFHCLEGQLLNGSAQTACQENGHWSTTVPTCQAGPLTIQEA
Experimental: (§4) Sialyl Lewis^X Tyrosine Sulfate Assay (sLe^x TSA):
(§5) Compounds of the present invention are assayed on a molecular level for their ability to inhibit the binding of P-, L-, or E-selectin chimeric molecules to sLe^x and tyrosinesulfate residues linked to a polymeric matrix as a PSGL-1 substitute. Selected IC50-values are determined.
(§6) Microtiter plates are coated overnight in carbonate buffer pH9.6 with goat anti human Fc mAB (10 μg/ml). After washing in assay buffer (25 mM 4-(2-hydroxyethyl)-1-piperazineethanesulfonic acid (HEPES), 150 mM NaCl, 1 mM CaCl2 pH7.4) and blocking (3% bovine serum albumin (BSA) in assay buffer) plates are incubated for 2 h at 37° C. with human P-Selectin-IgG-chimera (0.61 nM respectively 150 ng/mL) or human L-Selectin-IgG-chimera (0.61 nM respectively 89 ng/mL) or human E-Selectin-IgG-chimera (0.61 nM respectively 131 ng/mL). 5 μl of sLe^x-tyrosine sulfate polyacrylamide (1 mg/ml) carrying 15% sLe^x, 10% Tyrosine-sulfate and 5% biotin is complexed with 20 μl Streptavidin-Peroxidase solution (1 mg/ml) and 25 μl assay buffer without CaCl2. For use in the assay, the ligand complex is diluted 1:10000 in assay buffer and further diluted 1:1 with varying amounts of compounds in assay buffer incl. 2% DMSO. This mixture is added to the wells precoated with E- or P-selectin. After incubation for 2 h at 37° C., wells are washed for six times with in assay buffer incl. 0.005% Polyoxyethylenesorbitan monolaurate (TWEEN 20), developed for 10-15 min with 20 μl 3,3′,5,5′-tetramethylbenzidine (TMB)/H2O2 substrate solution and stopped with 20 μl 1M H2SO4. Bound sLe^x-Tyrosine sulfate ligand complex is determined by measuring optical density at 450 nm vs. 620 nm in a Fusion alpha-FP reader (sold from Packard Bioscience, Dreieich, Germany).

[3] = tested on: human P-selectin-IgG chimera; assay: Flow chamber assay, cell adhesion and rolling under flow conditions, P-selectin; assay type: cell-based; settings: normalized ratio of %-inhibition of compound divided by %-inhibition of bimosiamose; 125 μM compound; HL-60 cells; flow shear 1 dyne/cm^2
Experimental: as §1, §2, §3

[4] = target: T2, human L-Selectin-IgG-chimera (Homo sapiens, UniProt P14151); assay: Sialyl Lewis X Tyrosine Sulfate Assay (sLex TSA), L-selectin; assay type: binding; settings: sLexTSA; for L-Selectin [% inhib.]: in vitro inhibition at 100 μM
T2 construct: fused on or other part: human IgG Fc part, captured on the plate by goat anti human Fc antibody; a tag, no second protein
T2 sequence (P14151 39-318 limits assumed): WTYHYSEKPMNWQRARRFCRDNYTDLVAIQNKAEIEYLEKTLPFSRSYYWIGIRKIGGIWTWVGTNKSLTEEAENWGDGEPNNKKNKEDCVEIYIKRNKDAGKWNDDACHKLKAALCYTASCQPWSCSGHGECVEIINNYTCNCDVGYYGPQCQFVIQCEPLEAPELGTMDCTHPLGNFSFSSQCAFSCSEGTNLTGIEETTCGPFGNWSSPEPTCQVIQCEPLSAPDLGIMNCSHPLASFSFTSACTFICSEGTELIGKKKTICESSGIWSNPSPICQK
Experimental: as §4, §5, §6

[5] = target: T3, human E-Selectin-IgG-chimera (Homo sapiens, UniProt P16581); assay: Sialyl Lewis X Tyrosine Sulfate Assay (sLex TSA), E-selectin; assay type: binding; settings: sLexTSA, in vitro inhibition at 100 μM
T3 construct: fused on or other part: human IgG Fc part, captured on the plate by goat anti human Fc antibody; a tag, no second protein
T3 sequence (P16581 22-175 limits assumed): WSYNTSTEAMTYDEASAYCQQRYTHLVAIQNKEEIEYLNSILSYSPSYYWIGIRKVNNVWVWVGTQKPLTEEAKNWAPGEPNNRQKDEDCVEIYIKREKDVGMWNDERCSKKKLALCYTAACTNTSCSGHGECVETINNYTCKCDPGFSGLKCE
Experimental: as §4, §5, §6

Row | SMILES | E-Selectin [Ratio] [1] | IC50 [2] | P-Selectin [Ratio] [3] | IC50 [4] | P-Selectin [% inhib.] [2] | L-Selectin [% inhib.] [4] | E-Selectin [% inhib.] [5]
1 | O=C(O)Cc1ccc(-c2ccccc2NC(=O)c2cncc(-c3ccc(O)cc3O)c2)s1 [Compound 73, [5-(2-{[5-(2,4-Dihydroxy-phenyl)-pyridine-3-carbonyl]-amino}-phenyl)-thiophen-2-yl]-acetic acid] | 0.99 Ratio | 260 µM | 1.20 Ratio | 502 µM |  |  | 
2 | COC(=O)c1ccc(C)c(NC(=O)CCCNC(=O)c2cc(O)cc(O)c2)c1 [Compound 37] |  |  |  |  | 5.2 % inhib. | 9.5 % inhib. | 38.9 % inhib.
3 | COC(=O)c1cccc(NC(=O)CCCNC(=O)c2cc(O)cc(O)c2)c1 [Compound 22, 3-[4-(3,5-Dihydroxy-benzoylamino)-butyrylamino]-benzoic acid methyl ester] |  |  |  |  | 22.7 % inhib. | 21.3 % inhib. | 42.7 % inhib.
4 | COc1ccc(-c2cccc(C(=O)Nc3ccccc3-c3ccc(CC(=O)O)s3)c2)c(OC)c1 [Compound 62, (5-{2-[(2′,4′-Dimethoxy-biphenyl-3-carbonyl)-amino]-phenyl}-thiophen-2-yl)acetic acid] | 1.15 Ratio | 62.9 µM | 1.22 Ratio | 151 µM |  |  | 
5 | COc1ccc(-c2cccc(C(=O)Nc3ccccc3-c3ccc(C(=O)O)s3)c2)c(OC)c1 [Compound 66] | 1.21 Ratio | 67.8 µM | 0.76 Ratio | 152 µM |  |  | 
6 | COC(=O)Cc1ccc(-c2ccccc2NC(=O)c2cccc(-c3ccc(O)cc3O)c2)s1 [Compound 64, (5-{2-[(2′,4′-Dihydroxy-biphenyl-3-carbonyl)-amino]-phenyl}-thiophen-2-yl)acetic acid methyl ester] | 1.34 Ratio | 50 µM | 1.70 Ratio | 62.3 µM |  |  | 
7 | COC(=O)Cc1cccc(NC(=O)CCCNC(=O)c2cc(O)cc(O)c2)c1 [Compound 35] |  |  |  |  | 15.6 % inhib. | 19.4 % inhib. | 40.8 % inhib.
8 | O=C(O)CCc1cccc(NC(=O)CCCNC(=O)c2cc(O)cc(O)c2)c1 [Compound 32] |  |  |  |  | 1.4 % inhib. | 13.1 % inhib. | 35.0 % inhib.
9 | COC(=O)c1ccc(CNC(=O)CCCNC(=O)c2cc(O)cc(O)c2)cc1 [Compound 40] |  |  |  |  | 28.2 % inhib. | 31.1 % inhib. | 34.4 % inhib.
10 | COc1cc(OC)cc(-c2cccc(C(=O)Nc3ccccc3-c3ccc(CC(=O)O)s3)c2)c1 [Compound 81, (5-{2-[(3′,5′-Dimethoxy-biphenyl-3-carbonyl)-amino]-phenyl}-thiophen-2-yl)-acetic acid] | 1.27 Ratio | 35.3 µM | 1.55 Ratio | 131 µM |  |  | 
11 | O=C(O)Cc1ccc(-c2ccccc2NC(=O)Cc2cccc(-c3ccc(O)cc3O)c2)s1 [Compound 70, (5-{2-[2-(2′,4′-Dihydroxy-biphenyl-3-yl)-acetylamino]-phenyl}-thiophen-2-yl)-acetic acid] | 0.83 Ratio | 354 µM | 0.82 Ratio |  |  |  | 
12 | COc1cc(OC)cc(-c2cccc(C(=O)Nc3ccccc3-c3ccc(C(=O)O)s3)c2)c1 [Compound 84, 5-{2-[(3′,5′-Dimethoxy-biphenyl-3-carbonyl)-amino]-phenyl}-thiophene-2-carboxylic acid] | 1.36 Ratio | 46.6 µM | 1.02 Ratio | 144 µM |  |  | 
13 | O=C(Nc1ccccc1-c1ccc(C(=O)O)s1)c1cccc(-c2ccc(O)cc2O)c1 [Compound 67] | 1.60 Ratio | 201 µM | 0.92 Ratio | 434 µM |  |  | 
14 | O=C(O)Cc1ccc(-c2ccccc2NC(=O)c2cccc(-c3ccc(O)cc3O)c2)s1 [Compound 63, (5-{2-[(2′,4′-Dihydroxy-biphenyl-3-carbonyl)-amino]-phenyl}-thiophen-2-yl)acetic acid] | 1.31 Ratio | 81.2 µM | 1.95 Ratio | 157 µM |  |  | 
15 | O=C(O)Cc1ccc(-c2ccccc2NC(=O)c2cccc(-c3cc(O)cc(O)c3)c2)s1 [Compound 82, (5-{2-[(3′,5′-Dihydroxy-biphenyl-3-carbonyl)-amino]-phenyl}-thiophen-2-yl)-acetic acid] | 1.35 Ratio |  | 2.11 Ratio |  |  |  | 
